Source: the supplement of paper PMC10307832

Columns and labels:
Assay in all cases: relative viability (nuclei count vs DMSO), 5 days (fraction); higher = more cells survive
Dovitinib + Vorinostat = compound: CN1CCN(c2ccc3nc(-c4c(N)c5c(F)cccc5[nH]c4=O)[nH]c3c2)CC1 [Dovitinib] + O=C(CCCCCCC(=O)Nc1ccccc1)NO [Vorinostat] (partner 1 µM)
Outline: (§1)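 Lung cancer cell lines in 1536-well plates got either a single drug or a fixed anchor-drug dose together with five library-drug doses (not always all listed) in √10 steps, by pin tool, on the day after seeding. Nuclei were counted after 5 days, and relative viability is the treated-to-vehicle ratio of nuclei counts. Values are medians of duplicate plates.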

Dovitinib + Linsitinib = compound: CN1CCN(c2ccc3nc(-c4c(N)c5c(F)cccc5[nH]c4=O)[nH]c3c2)CC1 [Dovitinib] + C[C@]1(O)C[C@@H](c2nc(-c3ccc4ccc(-c5ccccc5)nc4c3)c3c(N)nccn32)C1 [Linsitinib] (partner 1 µM)
Outline: as §1

Dovitinib + Alpelisib = compound: CN1CCN(c2ccc3nc(-c4c(N)c5c(F)cccc5[nH]c4=O)[nH]c3c2)CC1 [Dovitinib] + Cc1nc(NC(=O)N2CCC[C@H]2C(N)=O)sc1-c1ccnc(C(C)(C)C(F)(F)F)c1 [Alpelisib] (partner 2 µM)
Outline: as §1

Dovitinib + Navitoclax = compound: CN1CCN(c2ccc3nc(-c4c(N)c5c(F)cccc5[nH]c4=O)[nH]c3c2)CC1 [Dovitinib] + CC1(C)CCC(c2ccc(Cl)cc2)=C(CN2CCN(c3ccc(C(=O)NS(=O)(=O)c4ccc(N[C@H](CCN5CCOCC5)CSc5ccccc5)c(S(=O)(=O)C(F)(F)F)c4)cc3)CC2)C1 [Navitoclax] (partner 0.5 µM)
Outline: as §1

Row | Cell Line | relative viability (Dovitinib + Vorinostat; first compound 0.02 µM) | relative viability (Dovitinib + Vorinostat; first compound 0.06325 µM) | relative viability (Dovitinib + Vorinostat; first compound 0.2 µM) | relative viability (Dovitinib + Vorinostat; first compound 0.6325 µM) | relative viability (Dovitinib + Vorinostat; first compound 2 µM) | relative viability (Dovitinib + Linsitinib; first compound 0.02 µM) | relative viability (Dovitinib + Linsitinib; first compound 0.06325 µM) | relative viability (Dovitinib + Linsitinib; first compound 0.2 µM) | relative viability (Dovitinib + Linsitinib; first compound 0.6325 µM) | relative viability (Dovitinib + Linsitinib; first compound 2 µM) | relative viability (Dovitinib + Alpelisib; first compound 0.02 µM) | relative viability (Dovitinib + Alpelisib; first compound 0.06325 µM) | relative viability (Dovitinib + Alpelisib; first compound 0.2 µM) | relative viability (Dovitinib + Alpelisib; first compound 0.6325 µM) | relative viability (Dovitinib + Alpelisib; first compound 2 µM) | relative viability (Dovitinib + Navitoclax; first compound 0.02 µM) | relative viability (Dovitinib + Navitoclax; first compound 0.06325 µM) | relative viability (Dovitinib + Navitoclax; first compound 0.2 µM) | relative viability (Dovitinib + Navitoclax; first compound 0.6325 µM) | relative viability (Dovitinib + Navitoclax; first compound 2 µM)
1 | NCI-H2085 | 0.808 | 0.821 | 0.819 | 0.765 | 0.801 | 0.927 | 1.08 | 1.07 | 0.913 | 0.917 | 1.05 | 0.987 | 0.88 | 0.936 | 1.03 | 1.05 | 1.09 | 1.08 | 1.07 | 1.1
2 | IA-LM | 0.962 | 0.883 | 1.13 | 0.973 | 0.897 | 0.602 | 0.544 | 0.627 | 0.614 | 0.547 | 0.732 | 0.78 | 0.854 | 0.911 | 0.765 | 0.778 | 0.961 | 0.814 | 0.704 | 0.76
3 | H3255 | 0.684 | 0.886 | 0.862 | 0.778 | 0.711 | 1 | 0.937 | 1.01 | 1.02 | 1.02 | 0.785 | 0.655 | 0.735 | 0.8 | 0.937 | 0.627 | 0.532 | 0.569 | 0.559 | 0.582
4 | LOU-NH91 | 0.961 | 0.846 | 0.919 | 0.984 | 0.94 | 0.984 | 0.915 | 0.968 | 1 | 1.05 | 0.818 | 0.73 | 0.714 | 0.75 | 0.765 | 0.687 | 0.72 | 0.684 | 0.7 | 0.804
5 | NCI-H3122 | 0.823 | 0.91 | 1.07 | 0.951 | 1.08 | 1 | 0.95 | 1.07 | 1.1 | 0.991 | 0.703 | 0.681 | 0.8 | 0.82 | 0.839 | 1.05 | 1.03 | 0.954 | 1.02 | 1.07
6 | PC-3 [JPC-3] | 0.888 | 0.77 | 0.948 | 0.945 | 0.914 | 0.923 | 0.907 | 0.983 | 0.99 | 0.967 | 1.03 | 1.01 | 1.02 | 1.09 | 0.909 | 0.834 | 0.841 | 0.861 | 0.802 | 0.777
7 | NCI-H1651 | 0.491 | 0.593 | 0.539 | 0.597 | 0.543 | 1.05 | 0.895 | 0.902 | 0.929 | 0.936 | 0.816 | 1.06 | 0.867 | 0.898 | 0.862 | 1.09 | 1.04 | 1.03 | 1.02 | 1.03
8 | NCI-H2087 | 0.817 | 0.79 | 0.685 | 0.837 | 0.803 | 0.953 | 0.943 | 1.09 | 1 | 0.825 | 1.35 | 1.31 | 1.02 | 0.989 | 1.01 | 1.07 | 0.941 | 1.01 | 1.07 | 0.981
